Assay results: patent publication US11149271B2, “Method and pharmaceutical composition for treating cancer” (Macau University of Science and Technology, priority 2018, dated 2021)

B1: tRNA^Glu(UUC): tRNA isolated from Taxus chinensis (Pilger) Rehd. var. mairei, 76 mer (nucleic acid)
chain: GCCCCUAUCGUCUAGUGGCCCAGGACAUCUCUCUUUCAAGGAGGCAACGGGGAUUCGAUUUCCCCUAGGGGUACCA
modifications: expressed or natural sequence
notes: tRNA isolated from Taxus chinensis (Pilger) Rehd. var. mairei, 76 mer
B2: tRNA^Leu(CAA): tRNA isolated from Taxus chinensis (Pilger) Rehd. var. mairei, 84 mer (nucleic acid)
chain: GCCUUGAUGGUGAAAUGGUAGACACGCGAGACUCAAAAUCUCGUGCUAAACAGCGUGGAGGUUCGAAUCCUCUUCAAGGCACCA
modifications: expressed or natural sequence
notes: tRNA isolated from Taxus chinensis (Pilger) Rehd. var. mairei, 84 mer
B3: tRNA^Trp(CCA): tRNA isolated from Taxus chinensis (Pilger) Rehd. var. mairei, 75 mer (nucleic acid)
chain: GCGCUCUUAGUUCAGUGCGGUAGAACGCAGGUCUCCAAAACCUGAUGCCGUAGGUUCAAAUCCUACAGAGCGCCA
modifications: expressed or natural sequence
notes: tRNA isolated from Taxus chinensis (Pilger) Rehd. var. mairei, 75 mer
B4: tRNA^His(GUG): tRNA isolated from Taxus chinensis (Pilger) Rehd. var. mairei, 78 mer (nucleic acid)
chain: GCGGACGUAGCCAAGUGGUCCAAAGGCAGUGGAUUGUGAAUCCACCACGCGCGGGUUCAAUCCCCGUCGUUCGCCCCA
modifications: expressed or natural sequence
notes: tRNA isolated from Taxus chinensis (Pilger) Rehd. var. mairei, 78 mer
B5: tRNA^Arg(ACG): tRNA isolated from Taxus chinensis (Pilger) Rehd. var. mairei, 77 mer (nucleic acid)
chain: GGGCCUGUAGCUCAGAGGAUUAGAGCACGUGGUUGCGAACCACGGUGUCGGGGGUUCGAAUCCCUCCUCGCCCACCA
modifications: expressed or natural sequence
notes: tRNA isolated from Taxus chinensis (Pilger) Rehd. var. mairei, 77 mer

Experiments:
A2780 cells = assay: MTT cytotoxicity assay on A2780 cells; format: cell-based, human; details: for IC50 / inhibition of growth and proliferation (cell viability): 48 h; for IC50: MTT; for inhibition of growth and proliferation (cell viability): 25 nM tRNA, RNAiMAX transfection, A2780 ovarian cancer cells (FIG. 3)
Procedure: (§1) A2780, Taxol-resistant A2780, HCT-8, Taxol-resistant HCT-8 and Taxol-resistant A549 cell lines were cultured in RPMI Medium 1640 medium containing 10% FBS and 1% penicillin/streptomycin. HepG2 and MCF-7 cell lines were cultured in Minimum Essential medium containing 10% FBS and 1% penicillin/streptomycin. All cell lines above were cultured at humidified atmosphere containing 5% CO2 at 37° C.
(§2) In the cytotoxicity assay, exponentially growing cells of each cancer cell line were plated in 96-well microplate at a density of 5000 cells per well in 100 μL of culture medium and allowed to adhere for 24 h before treatment. Serial concentrations of RNA molecules obtained in Example 1 and 2 in a mixture containing a gene delivery carrier, i.e. Lipofectamine™ RNAiMAX Transfection Reagent (Thermo Fisher Scientific, U.S.A.) were then added to the cells. After treated for 48 h, MTT solution (50 μL per well, 1 mg/mL solution) was added to each well and incubated for 4 h at 37° C. Subsequently, 200 μL dimethyl sulfoxide (DMSO) were added and the optical densities of the resulting solutions were calorimetrically determined at 570 nm using a SpectraMax 190 microplate reader (Molecular Devices, Sunnyvale, Calif., U.S.A). Dose-response curves were obtained, and the IC50 values were calculated by GraphPad Prism 5 (GraphPad, La Jolla, Calif., USA). Each experiment was carried out for three times. IC50 results were expressed as means±standard deviation.

[1] = tested on: Taxol-resistant A2780T cells; assay: MTT cytotoxicity assay on Taxol-resistant A2780 cells; format: cell-based, human
Procedure: as §1
as §2, with “Each experiment was carried out for three times.” left out

[2] = tested on: Taxol-resistant A549T cells; assay: MTT cytotoxicity assay on Taxol-resistant A549 cells; format: cell-based, human
Procedure: as §1
as §2, with “Each experiment was carried out for three times.” left out

[3] = tested on: A2780 cells tumor xenografts; assay: In vivo antitumor effect, A2780 xenograft in nude mice; parameters: species or system BALB/c nude mice; details: 2.4 mg/kg with 1% atelocollagen, tumor-adjacent injection once a week; for inhibition of tumor growth (ratio of tumor volume): 28 days (FIG. 7A); for body weight (ratio of weight changes): 28 days (FIG. 7B)
Procedure: Animal model having xenograft cancer was set. Female BALB/c nude mice (6-8-week old) were purchased from Shanghai SLAC Laboratory Animal Co., Ltd. and maintained at 25° C. with free access to food and water in a special pathogen-free laboratory of the animal environment facilities. The animal experiments were performed in compliance with institutional animal care guidelines and according to committee-approved protocol. To generate tumor xenografts, A2780 cells (4.0×10^6) were injected subcutaneously in 100 μL of 1640 medium through a 27-gauge needle into the armpit of 8-week-old BALB/c nude mice. After 4-5 weeks after tumors had reached 60-70 mm^3, the tumor-bearing nude mice were treated with synthesized tRF with atelocollagen (Koken Co., Ltd., Tokyo, Japan). The concentration of atelocollagen was 1%, and tumor-adjacent injection was performed by one dose of HC11 or HC30 (RNA molecule of SEQ ID NO: 1 or SEQ ID NO: 9) (GenePharma Co., Ltd., Shanghai, China) at concentration of 2.4 mg/kg with atelocollagen once a week. A control group was set up in which vehicle was administered to the mice. A Taxol group for administering 1 mg/kg Taxol to the mice was also set as a comparison. The entire treatment lasted for 28 days.
Tumor diameters were measured at maximum length and maximum width with digital calipers. And the tumor volume was calculated by the formula: volume=(width)^2×length/2. The data were statistically analyzed using GraphPad Prism 5 (GraphPad, La Jolla, Calif., USA). […] In other words, the RNA molecules of the present invention are effective in treating cancer cells both in vivo and in vitro.

[4] = tested on: Taxol-resistant HCT-8 cells (HCT-8T); assay: MTT cytotoxicity assay on Taxol-resistant HCT-8 cells; format: cell-based; details: 50 nM, 22 bp (FIG. 5F)
Procedure: as §1, §2

HCT-8 cells = assay: MTT cytotoxicity assay on HCT-8 cells; format: cell-based; details: for dose dependence of growth and proliferation inhibition: 6.25-100 nM (FIG. 6G, 6H); for IC50: 48 h, MTT
Procedure: as §1, §2

HepG2 cells = assay: MTT cytotoxicity assay on HepG2 cells; format: cell-based, human; details: 25 nM tRNA, 48 h, RNAiMAX transfection, HepG2 liver cancer cells (FIG. 3)
Procedure: as §1, §2

MCF-7 cells = assay: MTT cytotoxicity assay on MCF-7 cells; format: cell-based, human; details: 25 nM tRNA, 48 h, RNAiMAX transfection, MCF-7 breast cancer cells (FIG. 3)
Procedure: as §1, §2

| Molecule | cytotoxic effect (cell viability) [4] | inhibition of growth and proliferation (cell viability) (A2780 cells) | inhibition of growth and proliferation (cell viability) (HepG2 cells) | inhibition of growth and proliferation (cell viability) (MCF-7 cells) | also measured |
| --- | --- | --- | --- | --- | --- |
| HC11: double-stranded RNA, sense SEQ ID NO: 1, antisense SEQ ID NO: 101, 22 bp, 5′-t of tRNA^His(GUG) (sense GCGGACGUAGCCAAGUGGUCCA; antisense UGGACCACUUGGCUACGUCCGC; RNA, backbone and methylation of C not given here; synthetic double-stranded RNA) | – | – | – | – | dose dependence of growth and proliferation inhibition (A2780 cells; A2780 cells, 6.25-100 nM (FIG. 6A)): dose-dependent effect; IC50 (A2780 cells; A2780 cells): 31 nM; dose dependence of growth and proliferation inhibition ([1]; A2780T cells, 6.25-200 nM (FIG. 6C)): dose-dependent effect; IC50 ([1]; Taxol-resistant A2780T cells, 48 h, MTT): 32.3 nM; dose dependence of growth and proliferation inhibition ([2]; A549T cells, 6.25-200 nM (FIG. 6E)): dose-dependent effect; IC50 ([2]; Taxol-resistant A549T cells, 48 h, MTT): 87.3 nM; inhibition of tumor growth (ratio of tumor volume) [3]: effective in inhibiting the growth of the tumor; body weight (ratio of weight changes) [3]: maintaining a relative constant body weight |
| HC18: double-stranded RNA, sense SEQ ID NO: 13, antisense SEQ ID NO: 113, 22 bp, 5′-t of tRNA^Leu(CAA) (sense GCCUUGAUGGUGAAAUGGUAGA; antisense UCUACCAUUUCACCAUCAAGGC; RNA, backbone and methylation of C not given here; synthetic double-stranded RNA) | useful in treating cancer which is resistant against Taxol | – | – | – | – |
| HC30: double-stranded RNA, sense SEQ ID NO: 9, antisense SEQ ID NO: 109, 22 bp, 5′-t of tRNA^Trp(CCA) (sense GCGCUCUUAGUUCAGUGCGGUA; antisense UACCGCACUGAACUAAGAGCGC; RNA, backbone and methylation of C not given here; synthetic double-stranded RNA) | – | – | – | – | inhibition of tumor growth (ratio of tumor volume) [3]: effective in inhibiting the growth of the tumor; body weight (ratio of weight changes) [3]: maintaining a relative constant body weight |
| HC34: double-stranded RNA, sense SEQ ID NO: 25, antisense SEQ ID NO: 125, 22 bp, 5′-t of tRNA^Cys(GCA) (sense GGCGACAUAGCCAAGUGGUAAG; antisense CUUACCACUUGGCUAUGUCGCC; RNA, backbone and methylation of C not given here; synthetic double-stranded RNA) | useful in treating cancer which is resistant against Taxol | – | – | – | – |
| HC36: double-stranded RNA, sense SEQ ID NO: 29, antisense SEQ ID NO: 129, 22 bp, 5′-t of tRNA^Asn(GUU) (sense CCUCAGUAGCUCAGUGGUAGAG; antisense CUCUACCACUGAGCUACUGAGG; RNA, backbone and methylation of C not given here; synthetic double-stranded RNA) | useful in treating cancer which is resistant against Taxol | – | – | – | dose dependence of growth and proliferation inhibition (HCT-8 cells): dose-dependent effect; IC50 (HCT-8 cells): 8.2 nM |
| HC37: double-stranded RNA, sense SEQ ID NO: 31, antisense SEQ ID NO: 131, 22 bp, 3′-t of tRNA^Asn(GUU) (sense GGUUCAAAUCCUAUUUGAGGAG; antisense CUCCUCAAAUAGGAUUUGAACC; RNA, backbone and methylation of C not given here; synthetic double-stranded RNA) | useful in treating cancer which is resistant against Taxol | – | – | – | dose dependence of growth and proliferation inhibition (HCT-8 cells): dose-dependent effect; IC50 (HCT-8 cells): 9.3 nM |
| HC39: double-stranded RNA, sense SEQ ID NO: 35, antisense SEQ ID NO: 135, 22 bp, 3′-t of tRNA^Met(CAU) (sense GGUUCAAAUCCCGUCUCCGCAA; antisense UUGCGGAGACGGGAUUUGAACC; RNA, backbone and methylation of C not given here; synthetic double-stranded RNA) | useful in treating cancer which is resistant against Taxol | – | – | – | – |
| B1 | – | capable of inhibiting the growth and proliferation | capable of inhibiting the growth and proliferation | capable of inhibiting the growth and proliferation | – |
| B2 | – | capable of inhibiting the growth and proliferation | capable of inhibiting the growth and proliferation | capable of inhibiting the growth and proliferation | – |
| B3 | – | capable of inhibiting the growth and proliferation | capable of inhibiting the growth and proliferation | capable of inhibiting the growth and proliferation | IC50 (A2780 cells; A2780 cells): ~14.3 nM |
| B4 | – | capable of inhibiting the growth and proliferation | capable of inhibiting the growth and proliferation | capable of inhibiting the growth and proliferation | – |
| B5 | – | capable of inhibiting the growth and proliferation | capable of inhibiting the growth and proliferation | capable of inhibiting the growth and proliferation | – |
